From patent US20170367338A1, “COMPOSITIONS AND METHODS FOR IMPROVING AGRONOMIC CHARACTERISTICS OF PLANTS” (MONSANTO TECHNOLOGY LLC, priority 2014, published 2017)
Converted amounts (≈) assume the structure as drawn. Where two headings read alike, the source gives them in different places.

How the values were obtained:
Format in all cases: in vivo
C. elegans = test: Three day C. elegans well assay; conditions: for EC50: Caenorhabditis elegans
Description: Various compounds were tested for nematicidal activity against C. elegans using contact assays in wells. The assays were performed as described below. The test compounds were solubilized in DMSO at 10 mg/ml to create 100× stock solutions. A dilution series was created by diluting the stock solution with DMSO. For each well assay 4 ul of the appropriate dilution is added to a well of a test plate. A 400 ul aliquot of bacterial stock (in M9 buffer with ampicillin and nystatin) are added to each well of the test plate. Worms are added and the test plate placed on a rotary shaker and held at 20° C. Worms are examined and scored at 4 hrs, 24 hrs, 48 hrs and 72 hours. L1 worms and L4 worms were used in the assay. L1 worms are prepared by plating eggs on a plate without a bacterial feeding layer. The eggs hatch and arrest at the L1 stage. This L1 stage population is then used to create a stock for the experiments. To create an L4 stage stock a small number of worms are taken from an overgrown and starved plate of worms and seeded on a plate with a bacterial feeder layer. A 25 ul aliquot of worms is added to each well in the assay.

[1] = system: Heterodera glycines (SCN); test: Seed treatment test of soybean cyst nematode on soybean; conditions: Heterodera glycines, 672 h, read-out: percent cyst reduction relative to control blank treatment
Description: For a given concentration the chemical is dissolved in 500 ul of acetone and one gram of cucumber seed (RKN test) or soybean seed (SCN test) is added (e.g., 20 mg active ingredient in 500 ul acetone plus 1 gram of seed). The seed solutions are agitated until all seeds were thoroughly covered with the chemical solution. The acetone is then allowed to evaporate by air drying the seeds. The seeds are planted in 2-inch pots containing sandy soil and then the pots are inoculated with 1000 Meloidogyne incognita (RKN) or 1000 Heterodera glycines (SCN) eggs per pot three days after planting. Plants are rated for galling 14 days after egg inoculation for RKN or 28 days after egg inoculation for SCN.

Meloidogyne incognita = test: Summer field evaluation of pre-plant incorporated compounds on squash; conditions: 2 kg/ha PPI, squash
Description: Test plots of 33 cm diameter holes were bored 41 cm deep into clay soil and filled with a mixture of 80% sand and 20% silt loam soil. Technical compound for each treatment was dissolved in 50 ml acetone containing 250 ul of Triton X-100 surfactant. This solution was added to 450 ml water and poured onto 95 liters of sand/soil mixture in a rotating drum mixer. While continuing to rotate the mixing drum 66 grams of chopped, galled, tomato roots was added and thoroughly distributed. The treated soil was sufficient to fill the top 15 cm of each of the 6 replicate plots, thus simulating a PPI treatment. The plots were then watered lightly and a mixture of M. incognita eggs and larvae were injected 5 cm deep at 5 points within the plot (100k eggs/larvae in 10m1 per plot). Three-week old squash (cv. Liberator III) with 1 fully expanded true leaf was planted 4 days after soil treatment, one per plot.

root knot nematode = test: Pre-plant incorporated (PPI) greenhouse test of root knot nematode on cucumber plants; conditions: 168 h, seven day pre-plant incorporated
From the text: The PPI test examines the effect of pre-incorporation of compounds in soil and longer aging to simulate in furrow methods of nematicide application in the field. The PPI test exposes compounds to a higher volume of soil and drying which can result in more severe soil binding. Compounds are also aged for longer periods which can lead to more extensive biotic and abiotic degradation further limiting activity.
The chemically treated soil (sandy soil mix) for all treatment days (e.g., 7 days, 14 days, 21 days) treatments is potted into their appropriate pots. On the same day the 7 day treatment pots are seeded. One week later eggs are applied and 14 days after egg application the test is harvested. The 14 day treatments are planted 7 days after the first planting. The 14 day planting and 7 day inoculation happen on the same day. One week later the 14 day treatments are inoculated with eggs. These are harvested 14 days after the inoculation. The 21 day treatments are planted 14 days after the first planting. The 14 day inoculation and 21 day planting are done on the same day. One week later the 21 day plants are inoculated with eggs. The 7 day treatment is harvested the same day as the 21 day inoculation. Fourteen days after inoculation the 21 day plants are harvested.
For each compound a stock is prepared using 4 mg material in 4 ml of acetone. The soil is mixed by placing 80 ml of field soil and 320 ml of sand in a plastic bag and mixing well. The formulation for treatment is done by adding 2.13 ml (8 kg/ha rate), 1.06 ml (4 kg/ha rate) or 0.53 ml (2 kg/ha rate) to a vial and raising it with 10 ml in 0.05% X100. Soil is then treated by adding the entire 10 ml to the 400 ml of mix in the bag. The treated soil is immediately mixed well in the sealed bag to distribute the compound evenly. Approximately 95 ml is used to fill each 2-inch square pot up to the top with some soil compression and flattening. For each compound and for the control treatments 4 pots are filled. All pots are watered until moist but with no run-out through the bottom.
The PPI test simulates 8, 4 and 2 kg/ha rates incorporated 15 cm deep in the field and is equivalent to the 2, 1 and 0.5 kg/ha drench application rates in the standard 2-inch pot cucumber greenhouse assay.

[2] = 24 h, L1 larvae, one day of exposure, read-out: EC50 L1 1D
[3] = 24 h, L4 larvae, one day of exposure, read-out: EC50 L4 1D
[4] = 48 h, L1 larvae, two days of exposure, read-out: EC50 L1 2D
[5] = 48 h, L4 larvae, two days of exposure, read-out: EC50 L4 2D
[6] = 72 h, L1 larvae, three days of exposure, read-out: EC50 L1 3D
[7] = 72 h, L4 larvae, three days, effects on the second generation larvae, read-out: EC50 L4 3D (F1)
[8] = L4 larvae, two days of exposure

Row | SMILES | EC50 (C. elegans; [2]) | EC50 (C. elegans; [3]) | EC50 (C. elegans; [4]) | EC50 (C. elegans; [5]) | EC50 (C. elegans; [6]) | EC50 (C. elegans; [7]) | EC50 L4 1D (C. elegans; L4 larvae, one day of exposure) | other results
1 | Fc1cc(Cl)ccc1-c1noc(-c2cccs2)n1 [compound 5860] | 1.6 µg/mL (≈ 5.7 µM) | 1.6 µg/mL (≈ 5.7 µM) | 0.4 µg/mL (≈ 1.42 µM) | 1.6 µg/mL (≈ 5.7 µM) | 0.4 µg/mL (≈ 1.42 µM) | 1.6 µg/mL (≈ 5.7 µM) |  | 
2 | Cc1cc(Br)ccc1-c1noc(-c2cccs2)n1 [compound 5824] | 1.6 µg/mL (≈ 4.98 µM) |  | 0.4 µg/mL (≈ 1.25 µM) |  | 0.4 µg/mL (≈ 1.25 µM) | 1.6 µg/mL (≈ 4.98 µM) | no | EC50 L4 2D (C. elegans; [8]): no
3 | Clc1ccccc1-c1cnc(-c2ccco2)o1 [compound 5828] | 1.6 µg/mL (≈ 6.51 µM) |  | 1.6 µg/mL (≈ 6.51 µM) |  | 1.6 µg/mL (≈ 6.51 µM) |  | no | EC50 L4 3D (C. elegans; L4 larvae, three days of exposure): no; EC50 L4 2D (C. elegans; [8]): no
4 | Brc1ccccc1-c1cnc(-c2cccs2)o1 [compound 5827] | 6.3 µg/mL (≈ 20.6 µM) | 25 µg/mL (≈ 81.7 µM) | 1.6 µg/mL (≈ 5.23 µM) | 6.3 µg/mL (≈ 20.6 µM) | 1.6 µg/mL (≈ 5.23 µM) | 6.3 µg/mL (≈ 20.6 µM) |  | 
5 | Clc1cc(-c2noc(-c3ccco3)n2)ccc1Br [compound 5821] | 0.4 µg/mL (≈ 1.23 µM) |  | 0.4 µg/mL (≈ 1.23 µM) |  | 0.4 µg/mL (≈ 1.23 µM) | 0.4 µg/mL (≈ 1.23 µM) | no | 
6 | Fc1cc(Cl)ccc1-c1noc(-c2ccco2)n1 [compound 5861] | 0.4 µg/mL (≈ 1.51 µM) | 1.6 µg/mL (≈ 6.05 µM) | 0.4 µg/mL (≈ 1.51 µM) | 1.6 µg/mL (≈ 6.05 µM) | 0.4 µg/mL (≈ 1.51 µM) | 1.6 µg/mL (≈ 6.05 µM) |  | 
7 | Fc1cc(Br)ccc1-c1noc(-c2cccs2)n1 [compound 5848] | 1.6 µg/mL (≈ 4.92 µM) | 1.6 µg/mL (≈ 4.92 µM) | 0.4 µg/mL (≈ 1.23 µM) | 1.6 µg/mL (≈ 4.92 µM) | 0.4 µg/mL (≈ 1.23 µM) | 1.6 µg/mL (≈ 4.92 µM) |  | 
8 | Fc1cc(Cl)ccc1-c1nsc(-c2ccco2)n1 [compound 5953] |  |  |  |  |  |  |  | pest or weed control at 0.375 mg/g ([1]; 0.375 mg ai/gram seed, test b): 44%; pest or weed control at 1.5 mg/g ([1]; 1.5 mg ai/gram seed, test b): 77%
9 | Fc1cc(Br)ccc1-c1noc(-c2ccco2)n1 [compound 5850] | 1.6 µg/mL (≈ 5.18 µM) | 1.6 µg/mL (≈ 5.18 µM) | 0.4 µg/mL (≈ 1.29 µM) | 1.6 µg/mL (≈ 5.18 µM) | 0.4 µg/mL (≈ 1.29 µM) | 1.6 µg/mL (≈ 5.18 µM) |  | 
10 | Clc1cc(-c2noc(-c3cccs3)n2)ccc1Br [compound 5820] | 0.4 µg/mL (≈ 1.17 µM) |  | 0.4 µg/mL (≈ 1.17 µM) |  | 0.4 µg/mL (≈ 1.17 µM) | 6.3 µg/mL (≈ 18.4 µM) | no | 
11 | CCOP(=O)(SC(C)CC)N1CCSC1=O (centres unmarked) [fosthiazate] |  |  |  |  |  |  |  | 0-3 vigor 16DAP (Meloidogyne incognita): 3.0; 0-3 vigor 21DAP (Meloidogyne incognita): 3.0; feeder root (3 = ave) 31DAP (Meloidogyne incognita): 2.3; gall % 31DAP (Meloidogyne incognita): 5%; root wgt (g) 31DAP (Meloidogyne incognita): 26.4 g; top wgt (lbs) 31DAP (Meloidogyne incognita): 2.01 lbs; total fruit (lbs) (Meloidogyne incognita): 1.25 lbs
12 | Clc1ccc(-c2nsc(-c3cccs3)n2)cc1 [compound 5905] | 0.4 µg/mL (≈ 1.43 µM) |  | 0.4 µg/mL (≈ 1.43 µM) |  | 0.4 µg/mL (≈ 1.43 µM) |  |  | 
13 | Cc1cc(F)ccc1-c1noc(-c2cccs2)n1 [compound 5845] |  |  | 1.6 µg/mL (≈ 6.15 µM) | 25 µg/mL (≈ 96 µM) | 0.4 µg/mL (≈ 1.54 µM) | 25 µg/mL (≈ 96 µM) | no | EC50 L1 1D (C. elegans; L1 larvae, one day of exposure): no
14 | Clc1ccccc1-c1cnc(-c2cccs2)o1 [compound 5826] | 6.3 µg/mL (≈ 24.1 µM) | 6.3 µg/mL (≈ 24.1 µM) | 1.6 µg/mL (≈ 6.11 µM) | 6.3 µg/mL (≈ 24.1 µM) | 1.6 µg/mL (≈ 6.11 µM) | 6.3 µg/mL (≈ 24.1 µM) |  | 
15 | Cc1cc(F)ccc1-c1noc(-c2ccco2)n1 [compound 5846] | 1.6 µg/mL (≈ 6.55 µM) | 1.6 µg/mL (≈ 6.55 µM) | 0.4 µg/mL (≈ 1.64 µM) | 1.6 µg/mL (≈ 6.55 µM) | 0.4 µg/mL (≈ 1.64 µM) | 1.6 µg/mL (≈ 6.55 µM) |  | 
16 | Cc1cc(Cl)ccc1-c1noc(-c2cccs2)n1 [compound 5822] | 1.6 µg/mL (≈ 5.78 µM) |  | 0.4 µg/mL (≈ 1.45 µM) | 1.6 µg/mL (≈ 5.78 µM) | 0.4 µg/mL (≈ 1.45 µM) | 1.6 µg/mL (≈ 5.78 µM) | no | 
17 | Clc1ccc(-c2nsc(-c3ccco3)n2)cc1 [compound 5906] | 0.4 µg/mL (≈ 1.52 µM) |  | 0.4 µg/mL (≈ 1.52 µM) |  | 0.4 µg/mL (≈ 1.52 µM) |  |  | 
18 | Fc1ccc(-c2noc(-c3ccco3)n2)c(F)c1 [compound 5849] | 6.3 µg/mL (≈ 25.4 µM) |  | 0.4 µg/mL (≈ 1.61 µM) |  | 1.6 µg/mL (≈ 6.45 µM) | 6.3 µg/mL (≈ 25.4 µM) | no | 
19 | Fc1cc(F)c(-c2noc(-c3cccs3)n2)c(F)c1 [compound 5878] |  |  |  |  |  |  |  | pest or weed control at 0.375 mg/g ([1]; 0.375 mg ai/gram seed, test b): 43%; pest or weed control at 1.5 mg/g ([1]; 1.5 mg ai/gram seed, test b): 77%
20 | Fc1ccc(-c2noc(-c3cccs3)n2)c(F)c1 [compound 5847] |  |  | 0.4 µg/mL (≈ 1.51 µM) | 1.6 µg/mL (≈ 6.05 µM) | 0.4 µg/mL (≈ 1.51 µM) | 1.6 µg/mL (≈ 6.05 µM) | no | EC50 L1 1D (C. elegans; L1 larvae, one day of exposure): no; pest or weed control at 0.375 mg/g ([1]; 0.375 mg ai/gram seed, test b): 66%; pest or weed control at 1.5 mg/g ([1]; 1.5 mg ai/gram seed, test b): 80%
21 | FC(F)(F)c1ccc(-c2noc(-c3cccs3)n2)cc1 [compound 5213] |  |  |  |  |  |  |  | pest or weed control at 4000 g/ha (root knot nematode; 4 kg/ha, read-out: percent control (galling reduction), 4 kg/ha rate): 85%; pest or weed control at 8000 g/ha (root knot nematode; 8 ka/ha, read-out: percent control (galling reduction), 8 ka/ha rate): 98%
22 | CS/C(C)=N\OC(=O)N(C)SN(C)C(=O)O/N=C(\C)SC [Thiodicarb, reference compound] |  |  |  |  |  |  |  | pest or weed control at 0.375 mg/g [1]: 6%; pest or weed control at 1.5 mg/g [1]: -23%
